ChEMBL document CHEMBL3832761, “MMV Pathogen Box Bioactivity Data” (2017)
Values after ≈ are worked out from the molar mass of the structure shown.

How the values were obtained:
Type in all cases: functional
[1] = test system: Mycobacterium tuberculosis; assay: AntiMycobacterium tuberculosis activity 1-week 7H9/DPPC/cholesterol/BSA/Tx MIC (uM); details: 168 h
[2] = test system: Mycobacterium tuberculosis; assay: (§1) AntiMycobacterium tuberculosis activity day 10 in 7H9/2.5mM butyrate/pH6/0.1mM nitrite MIC90 (uM); details: 240 h
[3] = test system: Mycobacterium tuberculosis; assay: AntiMycobacterium tuberculosis activity 2-week GAST/Fe MIC (uM); details: 336 h
HepG2 = assay: HepG2 CC50 (uM) Cytotoxicity; details: Homo sapiens
[4] = test system: Mycobacterium tuberculosis; assay: AntiMycobacterium tuberculosis activity day 21 MIC99 in 7H9/2.5mM butyrate/pH6/0.1mM nitrite MIC99 (uM); details: 504 h
[5] = test system: Mycobacterium tuberculosis; assay: as §1; details: 240 h; remark: listed apart in the source
[6] = test system: Mycobacterium tuberculosis; assay: AntiMycobacterium tuberculosis activity 2-week Alamar Blue 7H9/ADC/Tw MIC (uM); details: 336 h
[7] = test system: Mycobacterium tuberculosis; assay: AntiMycobacterium tuberculosis activity 1-week GAST/Fe MIC (uM); details: 168 h
[8] = test system: Mycobacterium tuberculosis; assay: AntiMycobacterium tuberculosis activity 1-week 7H9/cholesterol/BSA/Tx MIC (uM); details: 168 h
[9] = test system: Mycobacterium tuberculosis; assay: AntiMycobacterium tuberculosis activity Replicating form: Average MIC90 (uM)
[10] = test system: Mycobacterium tuberculosis; assay: AntiMycobacterium tuberculosis activity 1-week 7H9/glucose/BSA/Tx MIC (uM); details: 168 h
[11] = test system: Mycobacterium tuberculosis; assay: AntiMycobacterium tuberculosis activity 2-week 7H9/DPPC/cholesterol/BSA/Tx MIC (uM); details: 336 h
[12] = test system: Mycobacterium tuberculosis; assay: AntiMycobacterium tuberculosis activity 1-week 7H9/ADC/Tw MIC (uM); details: 168 h
[13] = test system: Mycobacterium tuberculosis; assay: AntiMycobacterium tuberculosis activity 2-week 7H9/glucose/BSA/Tx MIC (uM); details: 336 h
[14] = test system: Mycobacterium tuberculosis; assay: AntiMycobacterium tuberculosis activity 2-week 7H9/ADC/Tw MIC (uM); details: 336 h
[15] = test system: Mycobacterium tuberculosis; assay: AntiMycobacterium tuberculosis activity day 21 in 7H9/2.5mM butyrate/pH6/0.1mM nitrite MIC90 (uM); details: 504 h
[16] = test system: Mycobacterium tuberculosis; assay: AntiMycobacterium tuberculosis activity Non-Replicating form: Average MIC90 (uM)
[17] = test system: Mycobacterium tuberculosis; assay: AntiMycobacterium tuberculosis activity 2-week Alamar Blue 7H9/cholesterol/BSA/Tx MIC (uM); details: 336 h

For `CCc1ccc(S(=O)(=O)Nc2cc(CN3CCN(CCC(C)C)CC3)ccc2C)cc1`, the MIC [1] was 12.5 µM (≈ 5.55 µg/mL), the MIC90 [2] was over 50 µM and the MIC [3] was 25 µM (≈ 11.1 µg/mL). It also gave a CC50 (HepG2) of 27.4 µM, an MIC [4] of over 50 µM and an MIC90 [5] of over 50 µM. The MIC [6] was 25 µM (≈ 11.1 µg/mL), the MIC [7] was 19 µM (≈ 8.43 µg/mL) and the MIC [8] was 12.5 µM (≈ 5.55 µg/mL). The MIC90 [9] was 45.6 µM (≈ 20.2 µg/mL), the MIC [10] was 25 µM (≈ 11.1 µg/mL) and the MIC [11] was 12.5 µM (≈ 5.55 µg/mL). The MIC [12] was 25 µM (≈ 11.1 µg/mL), the MIC [13] was 25 µM (≈ 11.1 µg/mL) and the MIC [14] was 25 µM (≈ 11.1 µg/mL). The MIC90 [15] was 50 µM (≈ 22.2 µg/mL), the MIC90 [16] was 89.8 µM (≈ 39.8 µg/mL) and the MIC [17] was 12.5 µM (≈ 5.55 µg/mL).

In the case of `Cn1c(=O)c2c(S(C)(=O)=O)snc2n(C)c1=O`, the MIC [1] was 19 µM (≈ 5.23 µg/mL), the MIC90 [2] was 6.25 µM (≈ 1.72 µg/mL) and the MIC [3] was 6.25 µM (≈ 1.72 µg/mL). For the same molecule, the CC50 (HepG2) was 1.1 µM, the MIC [4] was 12.5 µM (≈ 3.44 µg/mL) and the MIC90 [5] was 12.5 µM (≈ 3.44 µg/mL). It also gave an MIC [6] of 25 µM (≈ 6.88 µg/mL), an MIC [7] of 4.7 µM (≈ 1.29 µg/mL) and an MIC [8] of 25 µM (≈ 6.88 µg/mL). For the same molecule, the MIC90 [9] was 15.4 µM (≈ 4.24 µg/mL), the MIC [10] was 12.5 µM (≈ 3.44 µg/mL) and the MIC [11] was 37 µM (≈ 10.2 µg/mL). It also gave an MIC [12] of 19 µM (≈ 5.23 µg/mL), an MIC [13] of 19 µM (≈ 5.23 µg/mL) and an MIC [14] of 25 µM (≈ 6.88 µg/mL). It also gave an MIC90 [15] of 12.5 µM (≈ 3.44 µg/mL), an MIC90 [16] of under 0.23 µM and an MIC [17] of 25 µM (≈ 6.88 µg/mL).

With `CN1CCN(CCCOc2ncc(Nc3ncc(-c4ccc(C(F)(F)F)c(F)c4)nc3C(N)=O)cn2)CC1` the MIC [1] was 0.2 µM (≈ 0.107 µg/mL), the MIC90 [2] was 0.78 µM (≈ 0.417 µg/mL) and the MIC [3] was 1.56 µM (≈ 0.834 µg/mL). The CC50 (HepG2) was 3.9 µM, the MIC [4] was 12.5 µM (≈ 6.68 µg/mL) and the MIC90 [5] was 12.5 µM (≈ 6.68 µg/mL). It also gave an MIC [6] of 1.56 µM (≈ 0.834 µg/mL), an MIC [7] of 1.56 µM (≈ 0.834 µg/mL) and an MIC [8] of 0.39 µM (≈ 0.208 µg/mL). The MIC90 [9] was 3.46 µM (≈ 1.85 µg/mL), the MIC [10] was 1.2 µM (≈ 0.641 µg/mL) and the MIC [11] was 0.6 µM (≈ 0.321 µg/mL). It also gave an MIC [12] of 1.2 µM (≈ 0.641 µg/mL), an MIC [13] of 1.56 µM (≈ 0.834 µg/mL) and an MIC [14] of 1.56 µM (≈ 0.834 µg/mL). The MIC90 [15] was 1.5 µM (≈ 0.802 µg/mL), the MIC90 [16] was 3.1 µM (≈ 1.66 µg/mL) and the MIC [17] was 0.6 µM (≈ 0.321 µg/mL).

`CCC(Sc1nc2ccccc2o1)C(=O)Nc1nnc(C)s1` (configuration not stated) gave an MIC [1] of over 50 µM, an MIC90 [2] of 50 µM (≈ 16.7 µg/mL) and an MIC [3] of 12.5 µM (≈ 4.18 µg/mL). The CC50 (HepG2) was over 100 µM, the MIC [4] was over 50 µM and the MIC90 [5] was over 50 µM. It also gave an MIC [6] of over 50 µM, an MIC [7] of 9.4 µM (≈ 3.14 µg/mL) and an MIC [8] of over 50 µM. For the same molecule, the MIC90 [9] was 68.4 µM (≈ 22.9 µg/mL), the MIC [10] was over 50 µM and the MIC [11] was over 50 µM. The MIC [12] was over 50 µM, the MIC [13] was over 50 µM and the MIC [14] was over 50 µM. For the same molecule, the MIC90 [15] was 50 µM (≈ 16.7 µg/mL), the MIC90 [16] was 4.49 µM (≈ 1.5 µg/mL) and the MIC [17] was over 50 µM.

Work on `Cc1ccc2nc(Cl)c(CNCc3cccs3)cc2c1` yielded an MIC [1] of 12.5 µM (≈ 3.79 µg/mL), an MIC90 [2] of over 50 µM and an MIC [3] of 1.56 µM (≈ 0.472 µg/mL). The CC50 (HepG2) was over 100 µM, the MIC [4] was over 50 µM and the MIC90 [5] was over 50 µM. It also gave an MIC [6] of 50 µM (≈ 15.1 µg/mL), an MIC [7] of 0.78 µM (≈ 0.236 µg/mL) and an MIC [8] of 19 µM (≈ 5.75 µg/mL). It also gave an MIC90 [9] of over 100 µM, an MIC [10] of over 50 µM and an MIC [11] of over 50 µM. It also gave an MIC [12] of over 50 µM, an MIC [13] of over 50 µM and an MIC [14] of over 50 µM. The MIC90 [15] was over 50 µM, the MIC90 [16] was 93.7 µM (≈ 28.4 µg/mL) and the MIC [17] was 37 µM (≈ 11.2 µg/mL).

For `CC(=O)NCC1CN(c2ccc(-c3ccc(CO)cc3)c(F)c2)C(=O)O1` (configuration not stated), the MIC [1] was 0.39 µM (≈ 0.14 µg/mL), the MIC90 [2] was 0.39 µM (≈ 0.14 µg/mL) and the MIC [3] was 0.3 µM (≈ 0.108 µg/mL). For the same molecule, the CC50 (HepG2) was over 100 µM, the MIC [4] was 1.5 µM (≈ 0.538 µg/mL) and the MIC90 [5] was 1.5 µM (≈ 0.538 µg/mL). It also gave an MIC [6] of 0.39 µM (≈ 0.14 µg/mL), an MIC [7] of 0.1 µM (≈ 0.0358 µg/mL) and an MIC [8] of 0.39 µM (≈ 0.14 µg/mL). The MIC90 [9] was 0.49 µM (≈ 0.176 µg/mL), the MIC [10] was 0.6 µM (≈ 0.215 µg/mL) and the MIC [11] was 0.6 µM (≈ 0.215 µg/mL). For the same molecule, the MIC [12] was 0.39 µM (≈ 0.14 µg/mL), the MIC [13] was 0.6 µM (≈ 0.215 µg/mL) and the MIC [14] was 0.6 µM (≈ 0.215 µg/mL). For the same molecule, the MIC90 [15] was 0.78 µM (≈ 0.28 µg/mL), the MIC90 [16] was 0.32 µM (≈ 0.115 µg/mL) and the MIC [17] was 0.39 µM (≈ 0.14 µg/mL).

`O=C(c1cc2ccccc2o1)N1CCN(Cc2ccc3c(c2)OCO3)CC1` showed an MIC [1] of 19 µM (≈ 6.92 µg/mL), an MIC90 [2] of 50 µM (≈ 18.2 µg/mL) and an MIC [3] of 0.2 µM (≈ 0.0729 µg/mL). For the same molecule, the CC50 (HepG2) was over 100 µM, the MIC [4] was over 50 µM and the MIC90 [5] was over 50 µM. For the same molecule, the MIC [6] was 12.5 µM (≈ 4.56 µg/mL), the MIC [7] was 0.1 µM (≈ 0.0364 µg/mL) and the MIC [8] was 37 µM (≈ 13.5 µg/mL). For the same molecule, the MIC90 [9] was over 100 µM, the MIC [10] was over 50 µM and the MIC [11] was 50 µM (≈ 18.2 µg/mL). It also gave an MIC [12] of over 50 µM, an MIC [13] of over 50 µM and an MIC [14] of over 50 µM. It also gave an MIC90 [15] of over 50 µM, an MIC90 [16] of 16.6 µM (≈ 6.07 µg/mL) and an MIC [17] of 6.25 µM (≈ 2.28 µg/mL).

Work on `CCOC(=O)c1cc(-c2csc(Nc3c(C)cc(C)cc3C)n2)on1` yielded an MIC [1] of 3.13 µM (≈ 1.12 µg/mL), an MIC90 [2] of 3.1 µM (≈ 1.11 µg/mL) and an MIC [3] of 12.5 µM (≈ 4.47 µg/mL). For the same molecule, the CC50 (HepG2) was 24.4 µM, the MIC [4] was 6.25 µM (≈ 2.23 µg/mL) and the MIC90 [5] was 6.25 µM (≈ 2.23 µg/mL). It also gave an MIC [6] of 6.25 µM (≈ 2.23 µg/mL), an MIC [7] of 12.5 µM (≈ 4.47 µg/mL) and an MIC [8] of 1.56 µM (≈ 0.558 µg/mL). For the same molecule, the MIC90 [9] was 17.5 µM (≈ 6.26 µg/mL), the MIC [10] was 3.13 µM (≈ 1.12 µg/mL) and the MIC [11] was 6.25 µM (≈ 2.23 µg/mL). The MIC [12] was 4.7 µM (≈ 1.68 µg/mL), the MIC [13] was 4.7 µM (≈ 1.68 µg/mL) and the MIC [14] was 9.4 µM (≈ 3.36 µg/mL). For the same molecule, the MIC90 [15] was 6.25 µM (≈ 2.23 µg/mL), the MIC90 [16] was 13.8 µM (≈ 4.94 µg/mL) and the MIC [17] was 3.13 µM (≈ 1.12 µg/mL).

Work on `CCc1c(C)nc(-n2nc(C)cc2NC(=O)c2ccccc2SC)[nH]c1=O` yielded an MIC [1] of 3.13 µM (≈ 1.2 µg/mL), an MIC90 [2] of 3.12 µM (≈ 1.2 µg/mL) and an MIC [3] of 0.2 µM (≈ 0.0767 µg/mL). It also gave a CC50 (HepG2) of 1.3 µM, an MIC [4] of over 50 µM and an MIC90 [5] of over 50 µM. The MIC [6] was 37 µM (≈ 14.2 µg/mL), the MIC [7] was 0.1 µM (≈ 0.0383 µg/mL) and the MIC [8] was 6.25 µM (≈ 2.4 µg/mL). For the same molecule, the MIC90 [9] was over 100 µM, the MIC [10] was 9.4 µM (≈ 3.6 µg/mL) and the MIC [11] was over 50 µM. The MIC [12] was over 50 µM, the MIC [13] was over 50 µM and the MIC [14] was over 50 µM. For the same molecule, the MIC90 [15] was over 50 µM, the MIC90 [16] was 1.25 µM (≈ 0.479 µg/mL) and the MIC [17] was over 50 µM.
